Reference: PubChem BioAssay (NCI)
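Compound exposure: 48 hours, 5 concentrations, 96-well plates. TGI is the concentration that stops growth completely.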

Columns and labels:
Assay in all cases: NCI tumour cell line growth inhibition, 48 h
[1] = tested on: HT29 colon
[2] = tested on: KM20L2 colon
[3] = tested on: DLD-1 colon
[4] = tested on: HL-60(TB) leukemia
[5] = tested on: DMS 273 small cell lung
[6] = tested on: SF-539 CNS
[7] = tested on: MALME-3M melanoma
[8] = tested on: HOP-62 NSCLC
[9] = tested on: A549 NSCLC
[10] = tested on: HCC-2998 colon
[11] = tested on: NCI-H460 lung
[12] = tested on: SR leukemia
[13] = tested on: EKVX NSCLC
[14] = tested on: OVCAR-4 ovarian
[15] = tested on: UO-31 renal
[16] = tested on: M14 melanoma
[17] = tested on: CCRF-CEM leukemia
[18] = tested on: SF-268 CNS
[19] = tested on: 786-0 renal
[20] = tested on: SK-MEL-28 melanoma
[21] = tested on: UACC-62 melanoma
[22] = tested on: SF-295 CNS
[23] = tested on: HOP-92 NSCLC
[24] = tested on: MOLT-4 leukemia
[25] = tested on: SNB-78 CNS
[26] = tested on: SK-MEL-5 melanoma
[27] = tested on: ACHN renal
[28] = tested on: CAKI-1 renal
[29] = tested on: RXF 393 renal
[30] = tested on: HCT-15 colon
[31] = tested on: HCT-116 colon
[32] = tested on: SNB-75 CNS
[33] = tested on: SK-OV-3 ovarian
[34] = tested on: SN12C renal
[35] = tested on: HOP-18 NSCLC
[36] = tested on: U251 CNS
[37] = tested on: LOX IMVI melanoma
[38] = tested on: RPMI-8226 leukemia
[39] = tested on: DMS 114 small cell lung
[40] = tested on: UACC-257 melanoma
[41] = tested on: TK-10 renal
[42] = tested on: OVCAR-3 ovarian
[43] = tested on: SW-620 colon
[44] = tested on: COLO 205 colon
[45] = tested on: NCI-H522 lung
[46] = tested on: IGROV1 ovarian
[47] = tested on: KM12 colon
[48] = tested on: A498 renal
[49] = tested on: OVCAR-8 ovarian
[50] = tested on: OVCAR-5 ovarian
[51] = tested on: M19-MEL melanoma
[52] = tested on: LXFL 529 NSCLC
[53] = tested on: SNB-19 CNS
[54] = tested on: XF 498 CNS
[55] = tested on: K-562 leukemia

Question: Which TGI [1] does the source give for `CC(=O)OC[C@@H]1[C@H]2CC(=O)O[C@H]2C[C@H]1OC(C)=O` here?
Answer: > 100 µM

Question: And the TGI [2]?
Answer: > 100 µM

Question: And the TGI [3]?
Answer: > 100 µM

Question: What about the TGI [4] of the same molecule?
Answer: > 100 µM

Question: What about the TGI [5] of the same molecule?
Answer: > 100 µM

Question: What about the TGI [6] of the same molecule?
Answer: > 100 µM

Question: What about the TGI [7] of the same molecule?
Answer: > 100 µM

Question: And the TGI [8]?
Answer: > 100 µM

Question: What about the TGI [9] of the same molecule?
Answer: > 100 µM

Question: What about the TGI [10] of the same molecule?
Answer: > 100 µM

Question: And the TGI [11]?
Answer: > 100 µM

Question: And the TGI [12]?
Answer: > 100 µM

Question: And the TGI [13]?
Answer: > 100 µM

Question: What about the TGI [14] of the same molecule?
Answer: > 100 µM

Question: What about the TGI [15] of the same molecule?
Answer: > 100 µM

Question: What about the TGI [16] of the same molecule?
Answer: > 100 µM

Question: And the TGI [17]?
Answer: > 100 µM

Question: And the TGI [18]?
Answer: > 100 µM

Question: What about the TGI [19] of the same molecule?
Answer: > 100 µM

Question: And the TGI [20]?
Answer: > 100 µM

Question: And the TGI [21]?
Answer: > 100 µM

Question: And the TGI [22]?
Answer: > 100 µM

Question: What about the TGI [23] of the same molecule?
Answer: > 100 µM

Question: And the TGI [24]?
Answer: > 100 µM

Question: And the TGI [25]?
Answer: > 100 µM

Question: And the TGI [26]?
Answer: > 100 µM

Question: And the TGI [27]?
Answer: > 100 µM

Question: What about the TGI [28] of the same molecule?
Answer: > 100 µM

Question: What about the TGI [29] of the same molecule?
Answer: > 100 µM

Question: And the TGI [30]?
Answer: > 100 µM

Question: What about the TGI [31] of the same molecule?
Answer: > 100 µM

Question: And the TGI [32]?
Answer: > 100 µM

Question: What about the TGI [33] of the same molecule?
Answer: > 100 µM

Question: And the TGI [34]?
Answer: > 100 µM

Question: What about the TGI [35] of the same molecule?
Answer: > 100 µM

Question: And the TGI [36]?
Answer: > 100 µM

Question: And the TGI [37]?
Answer: > 100 µM

Question: And the TGI [38]?
Answer: > 100 µM

Question: And the TGI [39]?
Answer: > 100 µM

Question: What about the TGI [40] of the same molecule?
Answer: > 100 µM

Question: What about the TGI [41] of the same molecule?
Answer: > 100 µM

Question: What about the TGI [42] of the same molecule?
Answer: > 100 µM

Question: What about the TGI [43] of the same molecule?
Answer: > 100 µM

Question: And the TGI [44]?
Answer: > 100 µM

Question: What about the TGI [45] of the same molecule?
Answer: > 100 µM

Question: And the TGI [46]?
Answer: > 100 µM

Question: And the TGI [47]?
Answer: > 100 µM

Question: And the TGI [48]?
Answer: > 100 µM

Question: And the TGI [49]?
Answer: > 100 µM

Question: And the TGI [50]?
Answer: > 100 µM

Question: What about the TGI [51] of the same molecule?
Answer: > 100 µM

Question: What about the TGI [52] of the same molecule?
Answer: > 100 µM

Question: What about the TGI [53] of the same molecule?
Answer: > 100 µM

Question: How did the TGI [1] turn out when `CCOC(=O)NC(=O)c1cn(CCCOC(=O)CCCCCCCCC(=O)OCCCn2cc(C(=O)NC(=O)OCC)c(=O)[nH]c2=O)c(=O)[nH]c1=O` was run?
Answer: > 100 µM

Question: What about the TGI [2] of the same molecule?
Answer: > 100 µM

Question: And the TGI [3]?
Answer: 53.1 µM

Question: What about the TGI [4] of the same molecule?
Answer: 26.4 µM

Question: And the TGI [5]?
Answer: 66.6 µM

Question: And the TGI [6]?
Answer: 82.1 µM

Question: And the TGI [8]?
Answer: > 100 µM

Question: And the TGI [9]?
Answer: > 100 µM

Question: What about the TGI [10] of the same molecule?
Answer: 44.8 µM

Question: And the TGI [11]?
Answer: > 100 µM

Question: And the TGI [13]?
Answer: > 100 µM

Question: What about the TGI [14] of the same molecule?
Answer: 30.7 µM

Question: And the TGI [54]?
Answer: 72.4 µM

Question: What about the TGI [16] of the same molecule?
Answer: 76 µM

Question: What about the TGI [17] of the same molecule?
Answer: 21.6 µM

Question: And the TGI [19]?
Answer: 84.5 µM

Question: What about the TGI [20] of the same molecule?
Answer: 64.8 µM

Question: And the TGI [21]?
Answer: 69.1 µM

Question: And the TGI [22]?
Answer: 50.2 µM

Question: What about the TGI [24] of the same molecule?
Answer: 95.9 µM

Question: And the TGI [25]?
Answer: > 100 µM

Question: And the TGI [26]?
Answer: > 100 µM

Question: What about the TGI [27] of the same molecule?
Answer: 42.1 µM

Question: What about the TGI [28] of the same molecule?
Answer: 51.3 µM

Question: What about the TGI [30] of the same molecule?
Answer: 68.8 µM

Question: What about the TGI [31] of the same molecule?
Answer: > 100 µM

Question: What about the TGI [32] of the same molecule?
Answer: > 100 µM

Question: And the TGI [33]?
Answer: > 100 µM

Question: And the TGI [34]?
Answer: > 100 µM

Question: And the TGI [35]?
Answer: 56.4 µM

Question: And the TGI [36]?
Answer: 41.4 µM

Question: And the TGI [37]?
Answer: > 100 µM

Question: And the TGI [38]?
Answer: 38.3 µM

Question: What about the TGI [39] of the same molecule?
Answer: 39.2 µM

Question: And the TGI [40]?
Answer: 48.4 µM

Question: What about the TGI [41] of the same molecule?
Answer: 57.9 µM

Question: What about the TGI [42] of the same molecule?
Answer: 34.8 µM

Question: And the TGI [43]?
Answer: 60.3 µM

Question: What about the TGI [55] of the same molecule?
Answer: 49.8 µM

Question: What about the TGI [44] of the same molecule?
Answer: 64.4 µM

Question: What about the TGI [46] of the same molecule?
Answer: 58.1 µM

Question: And the TGI [48]?
Answer: 67.5 µM

Question: And the TGI [49]?
Answer: > 100 µM

Question: And the TGI [51]?
Answer: > 100 µM

Question: What about the TGI [52] of the same molecule?
Answer: 79.8 µM

Question: What about the TGI [53] of the same molecule?
Answer: 57.4 µM
